{"source": "paper PMC6792350", "about": "(Environmental Health Perspectives, 2019)", "key": {"in vivo": {"test": "in vivo", "experimental": "Table 1 summarizes the protocol of the experiments and the plasma and urine datasets further considered for TK analyses.\nFor administrations by gavage, BPA powder was dissolved in ethanol–corn oil (1:9, vol:vol) at 100mg/mL (Exp. 1).\n(§1) The plasma analytes concentration–time data from individual piglets were used to derive the maximum concentration (Cmax), and the time to maximum concentration (Tmax). The area under the plasma concentration–time curves from dosing time to the time of the last measurable concentration ( AUC0–tlast ) were calculated using the linear trapezoidal rule (Equation 1). (1) AUC0–tlast=∑0tlast(Ci−1+Ci/2)×(ti−ti−1) where Ci is the concentration obtained at the time i ( ti ).\n(§2) The area under the plasma concentration time curve from t=0 to infinity ( AUC0–inf ) was obtained using Equation 2. (2) AUC0–inf=AUC0–tlast+AUCtlast–inf where AUCtlast–inf is the area extrapolated from the last observation to infinity, calculated according to Equation 3: (3) AUCtlast–inf=Clast/λz where Clast is the last observed quantifiable plasma concentration, and λz is the slope of the terminal phase, as estimated by linear regression using the best fit option of Phoenix®."}, "[1]": {"test": "Cumulative urinary excretion after IV and oral dosing in piglets", "procedure": "Blood samples were collected in heparinized polypropylene tubes, immediately chilled in ice and centrifuged for 10 min at 3,000×g at 4°C, and the supernatant plasma was stored in polypropylene tubes at −20°C until assay. Total urine was filtered through a nylon mesh ( 250μm ) and collected in glass containers and chilled in ice. The volume of each urine sample and the sampling time were recorded. A urine sample was immediately chilled in ice and centrifuged for 10 min at 3,000×g at 4°C and stored at −20°C until assayed.\nAnalytes were quantified by Acquity UPLC-MS/MS (Waters Corporation).\nAll TK analyses were performed using the Phoenix® NLME (version 8.0; Pharsight Corporation). The plasma mass concentrations were converted into molar concentrations before analysis."}, "[2]": {"test": "Population semiphysiologically based 9-compartment TK model (NLME) of plasma and urine data in piglets", "conditions": "for bioavailability: po; for k el: plasma and urine, other: intravenous and oral (data sets combined), tvK30, elimination rate constant from plasma to urine", "experimental": "The NLME model was therefore developed by combining the plasma and urinary data sets from the five TK experiments carried out in piglets, except for the urinary BPA concentration obtained after oral administration of BPA.\nDifferent compartmental models and submodels were tested and compared using the likelihood ratio test (LRT). The primary parameters of the model, namely the volumes of distribution ( VBPA , VBPAG , VBPS , VBPSG ) and the first-order rate constants ( Kij ) and their associated precisions [standard error (SE)] were estimated by minimizing an objective function value (OFV) expressed as minus twice the log of the likelihood estimation ( −2LL ).\nThe between-subject variability (BSV) of the parameters was evaluated using the exponential model θparameter_i=θtv_parameter×exp(ηi) , where θparameter_i is the parameter estimated for the i^th individual, θtv_parameter is the typical population value of the parameter, and ηi is the deviation associated with the i^th individual from the corresponding value of the parameter at the population level. The distribution of ηi was assumed to be normal with a mean of 0 and a variance ω² . The BSV was reported as a coefficient of variation (CV) in the original scale CV(%)=100× exp (ω^2)−1 .\nThe residual variance was modeled using a combined additive and proportional error model Cobsij=Cpredij(1+ε1ij)+ε2ij where Cobsij and Cpredij are respectively the j^th observed and predicted concentrations for the i^th individual and ε1ij and ε2ij the multiplicative and additive residual errors.\nThe bootstrap tool (20 replicates) was used to evaluate the mean, median, SE, and coefficient of variation of the parameter estimates. The predictive ability of the model was checked graphically by plotting Visual Predictive Check plots to compare the observed data with the selected quantiles (here 20th, 50th and 80th percentiles) of data simulated using the model and obtained from 200–1,000 replicates from each animal based on the structure of the original data (i.e., dosing, timing and number of samples).\nFor the LRT test, the critical value of the χ^2 distribution considered for a given nominal risk and a given number of degrees of freedom was obtained using the Excel function CHISQ.INV.RT().\nFigure 1. Schematic representation of the compartmental model. […] The link between the two central compartments was modeled with a compartment (CP2) that should be viewed as the liver. […] The fraction of absorbed BPA that is not hepatically transformed reaches the CP3 via K23 . The exchanges between CP2 and CP3 are bilateral, K32 being the rate constant between CP3 and CP2 and K23 the rate constant between CP2 and CP3. […] It was assumed that no phase-two metabolite other than BPAG (BPSG) was formed.\n(12) Bioavailability=K12/K12+K110+K10×(1−K25/K25+K23) with K10 , K12 , K110 , K23; K25 as defined above."}, "[3]": {"conditions": "human; cited from earlier work"}, "[4]": {"test": "Noncompartmental toxicokinetic analysis of plasma after IV dosing in piglets", "experimental": "Table 1 summarizes the protocol of the experiments and the plasma and urine datasets further considered for TK analyses. A first experiment (Exp. 1) was performed in 8 male piglets age 42 d ( 20.8±1.6kg BW) to investigate oral BPA TK. […] BPA data obtained after IV BPA administrations had already been used to evaluate human BPA clearance using an allometric approach ([Collet et al. 2015]).\nFor the IV administrations, BPA powder was dissolved in ethanol–propylene glycol (1:49, vol:vol) at 50mg/mL (Exp.1 and 2) and in ethanol–saline (1:2, vol:vol) at 23mg/mL (Exp. 5).\nDuring the first 24 h of sampling, the piglets were housed individually in stainless steel cages.\nas §1, §2"}, "[5]": {"conditions": "no reference given; cited from earlier work"}, "[6]": {"design": "method as in EFSA CEF Panel 2015", "conditions": "ref EFSA CEF Panel 2015; cited from earlier work"}}}
{"compound": "CC(C)(c1ccc(O)cc1)c1ccc(O)cc1", "note": "[BPA, bisphenol A]", "values": [{"measurement": "AUClast/dose", "setting": "in vivo; both, pig, in vivo, po", "value": "0.0024±0.0027", "unit": "μmol×h/L per μmol/kg BW"}, {"measurement": "Cl_F (apparent clearance)", "setting": "in vivo; both, pig, in vivo, po", "value": "21170 ± 20830", "unit": "mL/min/kg"}, {"measurement": "Tmax", "setting": "in vivo; both, pig, in vivo, po, Tmax", "value": "57 ± 33", "unit": "min"}, {"measurement": "Tmax", "setting": "in vivo; both, pig, in vivo, po, time to maximal plasma concentration", "value": "~60", "unit": "min"}, {"measurement": "mean fraction of total (parent plus glucuronide) in plasma that is unconjugated", "setting": "in vivo; oral dosing, piglets", "value": 0.16, "unit": "%"}, {"measurement": "part of the dose eliminated in urine", "setting": "[1]; 3 h after dosing", "value": "About half"}, {"measurement": "unconjugated compound in urine, fraction of IV dose", "setting": "[1]; IV BPA and BPS doses", "value": "0.044±0.028", "unit": "%"}, {"measurement": "tvK10, rate constant of unabsorbed compound from the gastrointestinal tract, Mean", "setting": "[2]; bootstrap mean", "value": 0.223, "unit": "h⁻¹"}, {"measurement": "tvK12, rate constant of absorption by enterocytes passing directly into the portal blood, Mean", "setting": "[2]; bootstrap mean", "value": 0.365, "unit": "h⁻¹"}, {"measurement": "tvK23, distribution rate constant liver to plasma, Mean", "setting": "[2]; bootstrap mean", "value": 1.53, "unit": "h⁻¹"}, {"measurement": "tvK32, distribution rate constant, Mean", "setting": "[2]; bootstrap mean", "value": 3.72, "unit": "h⁻¹"}, {"measurement": "tvK34, distribution rate constant, Mean", "setting": "[2]; bootstrap mean", "value": 5.90, "unit": "h⁻¹"}, {"measurement": "tvK43, distribution rate constant, Mean", "setting": "[2]; bootstrap mean", "value": 3.89, "unit": "h⁻¹"}, {"measurement": "tvK110, rate constant of compound absorbed by enterocytes locally subjected to glucuronidation, Mean", "setting": "[2]; bootstrap mean", "value": 0.349, "unit": "h⁻¹"}, {"measurement": "tvK10, rate constant of unabsorbed compound from the gastrointestinal tract, Median", "setting": "[2]; bootstrap median", "value": 0.219, "unit": "h⁻¹"}, {"measurement": "tvK12, rate constant of absorption by enterocytes passing directly into the portal blood, Median", "setting": "[2]; bootstrap median", "value": 0.371, "unit": "h⁻¹"}, {"measurement": "tvK23, distribution rate constant liver to plasma, Median", "setting": "[2]; bootstrap median", "value": 1.32, "unit": "h⁻¹"}, {"measurement": "tvK32, distribution rate constant, Median", "setting": "[2]; bootstrap median", "value": 3.31, "unit": "h⁻¹"}, {"measurement": "tvK34, distribution rate constant, Median", "setting": "[2]; bootstrap median", "value": 4.14, "unit": "h⁻¹"}, {"measurement": "tvK43, distribution rate constant, Median", "setting": "[2]; bootstrap median", "value": 3.68, "unit": "h⁻¹"}, {"measurement": "tvK110, rate constant of compound absorbed by enterocytes locally subjected to glucuronidation, Median", "setting": "[2]; bootstrap median", "value": 0.318, "unit": "h⁻¹"}, {"measurement": "CL renal", "setting": "[2]; both, pig, in vivo", "value": 0.0333, "unit": "mL/min/kg"}, {"measurement": "mean volume of the central compartment", "setting": "[2]; both, pig, in vivo", "value": 1.0, "unit": "L/kg"}, {"measurement": "metabolic hepatic clearance as fraction of plasma clearance", "setting": "[2]; both, pig, in vivo", "value": "higher than 99%"}, {"measurement": "renal clearance as fraction of plasma clearance estimated by noncompartmental analysis", "setting": "[2]; both, pig, in vivo", "value": 0.06, "unit": "%"}, {"measurement": "tvV, volume of the central compartment, Mean", "setting": "[2]; both, pig, in vivo", "value": 1.03, "unit": "L/kg"}, {"measurement": "tvV, volume of the central compartment, Median", "setting": "[2]; both, pig, in vivo", "value": 1.00, "unit": "L/kg"}, {"measurement": "bioavailability", "setting": "[2]; both, pig, in vivo", "value": 0.5, "unit": "%"}, {"measurement": "k el", "setting": "[2]; both, pig, Mean, bootstrap mean", "value": "7.22e-07", "unit": "s⁻¹"}, {"measurement": "k el", "setting": "[2]; both, pig, Median, bootstrap median", "value": "5.56e-07", "unit": "s⁻¹"}, {"measurement": "fraction of the absorbed dose glucuronidated in the gut", "setting": "[2]; oral, % of absorbed dose", "value": 44, "unit": "%"}, {"measurement": "fraction of the absorbed dose reaching the liver / first-pass glucuronidated in the liver", "setting": "[2]; oral, % of absorbed dose", "value": 53, "unit": "%"}, {"measurement": "fraction of the dose reaching the liver unchanged", "setting": "[2]; oral, % of administered dose", "value": 40.3, "unit": "%"}, {"measurement": "fraction of the dose subjected to hepatic first-pass effect", "setting": "[2]; oral, % of administered dose", "value": 39.9, "unit": "%"}, {"measurement": "hepatic first-pass effect: fraction of compound reaching the liver that is glucuronidated", "setting": "[2]; oral, % of the fraction reaching the liver", "value": 99, "unit": "%"}, {"measurement": "Fraction of absorbed BPA undergoing a first-pass effect (gut and liver), Mean", "setting": "[2]; oral, bootstrap mean", "value": 0.988}, {"measurement": "Fraction of administered compound glucuronidated by the gastro-intestinal tract, Mean", "setting": "[2]; oral, bootstrap mean", "value": 0.360}, {"measurement": "Fraction of administered compound reaching the liver by the portal blood flow, Mean", "setting": "[2]; oral, bootstrap mean", "value": 0.405}, {"measurement": "fraction absorbed by the gastro-intestinal tract, Mean", "setting": "[2]; oral, bootstrap mean", "value": 0.765}, {"measurement": "Fraction of absorbed BPA undergoing a first-pass effect (gut and liver), Median", "setting": "[2]; oral, bootstrap median", "value": 0.989}, {"measurement": "Fraction of administered compound glucuronidated by the gastro-intestinal tract, Median", "setting": "[2]; oral, bootstrap median", "value": 0.340}, {"measurement": "Fraction of administered compound reaching the liver by the portal blood flow, Median", "setting": "[2]; oral, bootstrap median", "value": 0.403}, {"measurement": "fraction absorbed by the gastro-intestinal tract, Median", "setting": "[2]; oral, bootstrap median", "value": 0.766}, {"measurement": "CL renal", "setting": "[2]; pig, in vivo", "value": 0.0333, "unit": "mL/min/kg"}, {"measurement": "renal clearance, Median", "setting": "[2]; pig, in vivo", "value": 0.0333, "unit": "mL/min/kg"}, {"measurement": "bioavailability", "setting": "[2]; pig, in vivo", "value": 0.5, "unit": "%"}, {"measurement": "intestinal intrinsic clearance", "setting": "[3]", "value": 7.22, "unit": "mL/min/kg"}, {"measurement": "liver intrinsic clearance", "setting": "[3]", "value": 61.2, "unit": "mL/min/kg"}, {"measurement": "time after which plasma concentrations were below the LOQ", "setting": "[4]; after IV BPA and BPS administration", "value": "> 12", "unit": "h"}, {"measurement": "AUC0-tlast/dose", "setting": "[4]; pig, in vivo, iv", "value": "0.34±0.14", "unit": "μmol×h/L per μmol/kg"}, {"measurement": "clearance", "setting": "[4]; pig, in vivo, iv", "value": 56.8, "unit": "mL/min/kg"}, {"measurement": "LogP", "setting": "[5]", "value": 3.3}, {"measurement": "tolerable daily intake (TDI), fixed temporarily", "setting": "[6]", "value": 4, "unit": "μg/kg BW per day"}]}
